Assays:
[1] = biological target: T1, HaGST (recombinant rHaGST, delta-class glutathione S-transferase; GenBank EF033109 / ABK40535) (Helicoverpa armigera, UniProt A0MSN0)
T1 sequence (A0MSN0 1-220): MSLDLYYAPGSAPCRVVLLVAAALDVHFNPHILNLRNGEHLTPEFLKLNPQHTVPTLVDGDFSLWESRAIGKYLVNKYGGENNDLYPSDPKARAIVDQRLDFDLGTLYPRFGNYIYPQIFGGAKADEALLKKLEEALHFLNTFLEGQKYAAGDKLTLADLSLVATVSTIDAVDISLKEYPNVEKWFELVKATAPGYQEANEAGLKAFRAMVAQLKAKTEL

[2] = biological target: T1, HaGST (recombinant rHaGST, delta-class glutathione S-transferase; GenBank EF033109 / ABK40535); assay: GSH/CDNB conjugation assay at […] nm with purified rHaGST; Lineweaver-Burk plot; type: biochemical; set-up: His-tagged full-length rHaGST expressed from pET-28a in E. coli BL-21 (DE-3), Ni-NTA purified; 220 residues

## N[C@@H](CCC(=O)N[C@@H](CS)C(=O)NCC(=O)O)C(=O)O [GSH, glutathione]
[1]
  enzyme kinetics of purified rHaGST with variable GSH (Lineweaver-Burk), CDNB as: the rHaGST activity was calculated under different concentrations of GSH

## C[C@@]12C(=O)OC(=O)[C@]1(C)[C@H]1CC[C@@H]2O1 [cantharidin]
[2]
  IC50: 12.5 µM
